In BindingDB's records for PubMed 7616392 (Sanofi Recherche, 1995):

Target: T1, Neuromedin-K receptor (Homo sapiens, UniProt P29371)
T1 sequence (P29371 whole entry): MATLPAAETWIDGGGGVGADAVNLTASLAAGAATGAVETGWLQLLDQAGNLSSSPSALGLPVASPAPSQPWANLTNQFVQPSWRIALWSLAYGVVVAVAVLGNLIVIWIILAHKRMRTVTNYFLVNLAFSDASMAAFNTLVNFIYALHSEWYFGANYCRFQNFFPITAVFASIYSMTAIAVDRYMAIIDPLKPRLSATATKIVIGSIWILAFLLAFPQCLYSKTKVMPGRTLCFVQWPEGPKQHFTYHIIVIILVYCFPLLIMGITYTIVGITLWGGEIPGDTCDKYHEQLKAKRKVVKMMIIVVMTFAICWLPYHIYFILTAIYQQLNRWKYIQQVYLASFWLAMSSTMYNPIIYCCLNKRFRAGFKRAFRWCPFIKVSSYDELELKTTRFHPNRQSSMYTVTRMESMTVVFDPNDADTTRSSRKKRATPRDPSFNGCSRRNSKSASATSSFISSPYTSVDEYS

| Compound | Ki [nM] |
| --- | --- |
| CC(=O)NC1(c2ccccc2)CCN(CCC(CN(C)C(=O)c2ccccc2)c2ccc(Cl)c(Cl)c2)CC1 (configuration not stated) [SR 48968] | 368 |
| CC(C)Oc1cccc(CC(=O)N2CCC[C@](CC[N+]34CCC(c5ccccc5)(CC3)CC4)(c3ccc(Cl)c(Cl)c3)C2)c1 | 1080 |
